In brackets after ≈: the same amount, converted by molar mass.
Assays:
Assay type in all cases: cell-based
[1] = test system: Mycobacterium tuberculosis H37Rv; experiment: Microplate Alamar Blue assay (MABA) MIC, M. tuberculosis; details: read-out: MIC Mycobacterium tuberculosis H37Rv
Excerpt: (§1) Minimal inhibitory concentrations (MICs) in Mycobacterium tuberculosis H37Rv and Mycobacterium avium ATCC 25291 were quantified using microplate Alamar Blue assays as described (MABA; [Collins, L. & Franzblau, S. (1997) Microplate Alamar Blue assay versus BACTEC 460 system for high-throughput screening of compounds against Mycobacterium tuberculosis and Mycobacterium avium. Antimicrob. Agents Chemother. 41, 1004-1009]).

[2] = test system: Mycobacterium avium ATCC 25291; experiment: Microplate Alamar Blue assay (MABA) MIC, M. avium; details: ATCC25291, M. avium ATCC 25291
Excerpt: as §1

[3] = test system: Mycobacterium smegmatis ATCC 19420; experiment: Broth microdilution MIC, M. smegmatis; details: Mycolicibacterium smegmatis, ATCC19420, M. smegmatis ATCC 19420; read-out: MIC Mycobacterium smegmatis ATCC 19420
Excerpt: MICs in Mycobacterium smegmatis ATCC 19420 and Mycobacterium smegmatis ATCC 19420 derivatives were quantified using broth microdilution assays as described [Clinical and Laboratory Standards Institute (CLSI/NCCLS) (2009) Methods for Dilution Antimicrobial Susceptibility Tests for Bacteria That Grow Aerobically; Approved Standard, Eighth Edition. CLIS Document M07-A8 (CLIS, Wayne Pa.)].

[4] = test system: Vero E6 ATCC CRL1586 cells; experiment: Mammalian-cell cytotoxicity, minimal cytotoxic concentration (CellTiter96)
Protocol: Minimal cytotoxic concentrations (MCCs) against mammalian cells in culture were determined using Vero E6 ATCC CRL1586 cells and the CellTiter96 assay kit (Promega, Inc.). […]

| Structure (SMILES) | MIC [1] | MIC [2] | MIC [3] | MCC mammalian cells Vero E6 ATCC CRL1586 [4] |
| --- | --- | --- | --- | --- |
| O=C(NC(Cc1ccccc1)C(=O)Nc1cccc2c1OCCO2)c1cccc2[nH]ccc12 (centres unmarked) [IX-45, N-(1-((2,3-dihydrobenzo[b][1,4]dioxin-5-yl)amino)-1-oxo-3-phenyl-propan-2-yl)-1H-indole-4-carboxamide] | 3.12 µg/mL (≈ 7.08 µM) | 6.25 µg/mL (≈ 14.2 µM) | 0.39 µg/mL (≈ 0.883 µM) | 71 µg/mL |
| Cc1ccc(Cl)cc1NC(=O)C(Cc1ccc(O)cc1)NC(=O)c1ccccc1 (centres unmarked) [IX-51, N-(1-((5-chloro-2-methylphenyl)amino)-3-(4-hydroxyphenyl)-1-oxopropan-2-yl)benzamide] | 3.12 µg/mL (≈ 7.64 µM) | 6.25 µg/mL (≈ 15.3 µM) | 0.78 µg/mL (≈ 1.91 µM) | 60 µg/mL |
| Cc1ccc(Cl)cc1NC(=O)C(Cc1ccccc1)NC(=O)c1cccc2[nH]ccc12 (centres unmarked) [IX-53, N-(1-((5-chloro-2-methylphenyl)amino)-1-oxo-3-phenylpropan-2-yl)-1H-indole-4-carboxamide] | 3.12 µg/mL (≈ 7.24 µM) | 3.12 µg/mL (≈ 7.24 µM) | 0.39 µg/mL (≈ 0.903 µM) | 34 µg/mL |
| Cc1ccccc1NC(=O)C(Cc1ccc(O)cc1)NC(=O)c1ccccc1F (centres unmarked) [IX-54, 2-fluoro-N-(3-(4-hydroxyphenyl)-1-oxo-1-(o-tolylamino)propan-2-yl)benzamide] | 25 µg/mL (≈ 63.7 µM) | 50 µg/mL (≈ 127 µM) | 1.56 µg/mL (≈ 3.98 µM) | >100 µg/mL |
| COc1ccccc1NC(=O)C(Cc1ccccc1)NC(=O)c1ccccc1F (centres unmarked) [IX-56, 2-fluoro-N-(1-((2-methoxyphenyl)amino)-1-oxo-3-phenylpropan-2-yl)benzamide] | 3.12 µg/mL (≈ 7.96 µM) | 6.25 µg/mL (≈ 15.9 µM) | 0.39 µg/mL (≈ 0.994 µM) | 97 µg/mL |
| O=C(NC(Cc1ccccc1)C(=O)Nc1cccc2cnccc12)c1ccccc1F (centres unmarked) [IX-57, 2-fluoro-N-(1-(isoquinolin-5-ylamino)-1-oxo-3-phenylpropan-2-yl)benzamide] | 6.25 µg/mL (≈ 15.1 µM) | 12.5 µg/mL (≈ 30.2 µM) | 0.39 µg/mL (≈ 0.943 µM) | 79 µg/mL |
| O=C(NC(Cc1ccccc1)C(=O)Nc1cccc2c1OCCO2)c1ccccc1F (centres unmarked) [IX-59, N-(1-((2,3-dihydrobenzo[b][1,4]dioxin-5-yl)amino)-1-oxo-3-phenylpropan-2-yl)-2-fluorobenzamide] | 3.12 µg/mL (≈ 7.43 µM) | 6.25 µg/mL (≈ 14.9 µM) | 0.095 µg/mL (≈ 0.226 µM) | 49 µg/mL |
| Cc1ccccc1NC(=O)C(Cc1ccc(O)cc1)NC(=O)c1ccccc1Cl (centres unmarked) [IX-60, 2-chloro-N-(3-(4-hydroxyphenyl)-1-oxo-1-(o-tolylamino)propan-2-yl)benzamide] | 50 µg/mL (≈ 122 µM) | > 50 µg/mL | 3.12 µg/mL (≈ 7.64 µM) | >100 µg/mL |
| Cc1ccc(Cl)cc1NC(=O)C(Cc1ccccc1)NC(=O)c1ccccc1Cl (centres unmarked) [IX-61, 2-chloro-N-(1-((5-chloro-2-methylphenyl)amino)-1-oxo-3-phenylpropan-2-yl)benzamide] | > 50 µg/mL | > 50 µg/mL | 0.39 µg/mL (≈ 0.913 µM) | 9.2 µg/mL |
| COc1ccccc1NC(=O)C(Cc1ccccc1)NC(=O)c1ccccc1Cl (centres unmarked) [IX-62, 2-chloro-N-(1-((2-methoxyphenyl)amino)-1-oxo-3-phenylpropan-2-yl)benzamide] | 6.25 µg/mL (≈ 15.3 µM) | 6.25 µg/mL (≈ 15.3 µM) | 0.39 µg/mL (≈ 0.954 µM) | 12 µg/mL |
| O=C(NC(Cc1ccccc1)C(=O)Nc1cccc2cnccc12)c1ccccc1Cl (centres unmarked) [IX-63, 2-chloro-N-(1-(isoquinolin-5-ylamino)-1-oxo-3-phenylpropan-2-yl)benzamide] | 6.25 µg/mL (≈ 14.5 µM) | 12.5 µg/mL (≈ 29.1 µM) | 0.78 µg/mL (≈ 1.81 µM) | >100 µg/mL |
| O=C(NC(Cc1ccccc1)C(=O)Nc1cccc2ncccc12)c1ccccc1Cl (centres unmarked) [IX-64, 2-chloro-N-(1-oxo-3-phenyl-1-(quinolin-5-ylamino)propan-2-yl)benzamide] | 12.5 µg/mL (≈ 29.1 µM) | 50 µg/mL (≈ 116 µM) | 0.78 µg/mL (≈ 1.81 µM) | 78 µg/mL |
| O=C(NC(Cc1ccccc1)C(=O)Nc1cccc2c1OCCO2)c1ccccc1Cl (centres unmarked) [IX-65, 2-chloro-N-(1-((2,3-dihydrobenzo[b][1,4]dioxin-5-yl)amino)-1-oxo-3-phenylpropan-2-yl)benzamide] | 3.12 µg/mL (≈ 7.15 µM) | 6.25 µg/mL (≈ 14.3 µM) | 0.78 µg/mL (≈ 1.79 µM) | 18 µg/mL |
| Cc1ccc(Cl)cc1NC(=O)C(Cc1ccccc1)NC(=O)c1ccccc1C (centres unmarked) [IX-67, N-(1-((5-chloro-2-methylphenyl)amino)-1-oxo-3-phenylpropan-2-yl)-2-methylbenzamide] | 1.56 µg/mL (≈ 3.83 µM) | 1.56 µg/mL (≈ 3.83 µM) | 0.19 µg/mL (≈ 0.467 µM) | 8 µg/mL |
